Source: US9096602B2, “Substituted pyrrolo[2,3-B]pyrazines as ATR kinase inhibitors” (Vertex Pharmaceuticals Incorporated, priority 2011, dated 2015)

What follows are compounds tested against T1, ATR kinase (full-length ATR) (Homo sapiens, UniProt Q13535) (assay: ATR Inhibition Assay (radioactive-phosphate incorporation)). Details: not given.
T1 construct: Assays were carried out at 25° C. in the presence of 5 nM full-length ATR
T1 sequence (Q13535 whole entry): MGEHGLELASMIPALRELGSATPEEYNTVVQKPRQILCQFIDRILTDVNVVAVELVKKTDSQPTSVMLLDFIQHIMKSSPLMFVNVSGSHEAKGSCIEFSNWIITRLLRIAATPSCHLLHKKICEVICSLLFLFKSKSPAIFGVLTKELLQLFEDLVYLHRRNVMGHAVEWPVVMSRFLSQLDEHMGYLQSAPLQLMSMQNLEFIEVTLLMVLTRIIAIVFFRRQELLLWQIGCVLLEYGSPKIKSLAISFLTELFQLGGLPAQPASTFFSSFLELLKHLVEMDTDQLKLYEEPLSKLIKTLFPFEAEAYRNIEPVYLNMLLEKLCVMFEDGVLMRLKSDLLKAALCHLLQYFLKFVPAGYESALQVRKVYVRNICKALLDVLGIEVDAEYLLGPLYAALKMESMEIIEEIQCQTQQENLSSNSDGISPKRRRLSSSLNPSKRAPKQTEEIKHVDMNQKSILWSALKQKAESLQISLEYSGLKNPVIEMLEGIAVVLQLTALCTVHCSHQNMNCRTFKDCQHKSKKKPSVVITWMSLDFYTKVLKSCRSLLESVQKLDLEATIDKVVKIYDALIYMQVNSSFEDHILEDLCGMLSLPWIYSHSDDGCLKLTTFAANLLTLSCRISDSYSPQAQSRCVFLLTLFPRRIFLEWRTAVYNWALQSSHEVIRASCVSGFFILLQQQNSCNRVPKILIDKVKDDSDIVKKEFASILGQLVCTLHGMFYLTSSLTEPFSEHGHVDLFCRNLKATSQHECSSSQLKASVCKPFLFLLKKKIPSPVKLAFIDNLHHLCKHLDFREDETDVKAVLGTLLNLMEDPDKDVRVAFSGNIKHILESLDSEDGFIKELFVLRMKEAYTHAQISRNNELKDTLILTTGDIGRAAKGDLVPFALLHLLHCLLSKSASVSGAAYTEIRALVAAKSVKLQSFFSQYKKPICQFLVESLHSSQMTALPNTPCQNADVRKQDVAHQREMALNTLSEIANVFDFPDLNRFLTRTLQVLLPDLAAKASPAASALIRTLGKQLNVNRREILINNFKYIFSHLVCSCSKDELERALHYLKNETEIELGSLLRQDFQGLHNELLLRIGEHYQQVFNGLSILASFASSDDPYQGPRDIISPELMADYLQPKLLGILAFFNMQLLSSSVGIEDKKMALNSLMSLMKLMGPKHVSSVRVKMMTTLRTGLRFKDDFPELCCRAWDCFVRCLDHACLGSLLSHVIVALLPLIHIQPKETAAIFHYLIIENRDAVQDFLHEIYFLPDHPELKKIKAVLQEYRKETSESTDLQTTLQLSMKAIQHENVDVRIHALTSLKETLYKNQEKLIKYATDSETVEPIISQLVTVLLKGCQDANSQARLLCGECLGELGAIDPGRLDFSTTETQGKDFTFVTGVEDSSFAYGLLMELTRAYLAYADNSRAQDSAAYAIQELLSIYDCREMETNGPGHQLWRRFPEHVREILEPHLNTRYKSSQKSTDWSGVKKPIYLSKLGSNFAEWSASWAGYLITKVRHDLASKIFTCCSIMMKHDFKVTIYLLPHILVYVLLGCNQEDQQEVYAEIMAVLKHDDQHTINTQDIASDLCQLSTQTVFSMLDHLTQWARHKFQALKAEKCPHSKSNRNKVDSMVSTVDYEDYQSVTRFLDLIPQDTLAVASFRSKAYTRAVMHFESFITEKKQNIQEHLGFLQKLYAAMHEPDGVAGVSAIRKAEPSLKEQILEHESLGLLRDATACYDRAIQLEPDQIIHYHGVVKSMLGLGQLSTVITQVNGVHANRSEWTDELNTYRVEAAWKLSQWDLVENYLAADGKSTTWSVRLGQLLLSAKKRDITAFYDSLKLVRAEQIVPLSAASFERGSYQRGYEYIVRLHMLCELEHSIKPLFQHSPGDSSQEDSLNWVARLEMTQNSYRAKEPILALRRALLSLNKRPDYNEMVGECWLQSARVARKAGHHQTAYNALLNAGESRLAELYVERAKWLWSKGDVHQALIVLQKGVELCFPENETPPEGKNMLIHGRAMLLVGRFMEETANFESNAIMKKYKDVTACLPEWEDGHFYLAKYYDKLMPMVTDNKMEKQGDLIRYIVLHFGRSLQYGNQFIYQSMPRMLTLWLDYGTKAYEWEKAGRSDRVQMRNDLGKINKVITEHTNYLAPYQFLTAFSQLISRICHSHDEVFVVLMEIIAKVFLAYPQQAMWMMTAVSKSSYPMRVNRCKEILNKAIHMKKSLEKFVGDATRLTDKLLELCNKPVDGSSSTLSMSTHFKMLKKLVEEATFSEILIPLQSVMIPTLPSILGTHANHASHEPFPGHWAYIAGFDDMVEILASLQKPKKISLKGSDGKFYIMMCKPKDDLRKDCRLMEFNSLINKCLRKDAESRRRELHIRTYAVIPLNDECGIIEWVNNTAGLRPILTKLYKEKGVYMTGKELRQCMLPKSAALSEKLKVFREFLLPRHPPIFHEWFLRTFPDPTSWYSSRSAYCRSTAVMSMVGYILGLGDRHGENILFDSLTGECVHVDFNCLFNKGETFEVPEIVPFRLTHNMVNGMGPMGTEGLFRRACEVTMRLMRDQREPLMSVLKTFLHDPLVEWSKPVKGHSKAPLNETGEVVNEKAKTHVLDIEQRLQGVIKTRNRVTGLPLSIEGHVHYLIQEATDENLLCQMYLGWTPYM
Format: biochemical
How it was run: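 Radiometric 33P filter assay with 5 nM full-length ATR in 50 mM Tris/HCl pH 7.5, 10 mM MgCl2, 1 mM DTT at 25 °C. Final 10 μM [γ-33P]ATP and 800 μM peptide; 10 min compound preincubation, ATP start, stopped at 24 h with phosphoric acid/ATP. Ki(app) from non-linear regression of background-corrected initial rates.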
In the case of `CC(C)S(=O)(=O)c1ccc(-c2cnc3[nH]cc(C(=O)N4CCC5(CC4)OCCO5)c3n2)cc1` [Compound I-128, 1,4-dioxa-8-azaspiro[4.5]decan-8-yl-[2-(4-isopropylsulfonylphenyl)-5H-pyrrolo[2,3-b]pyrazin-7-yl]methanone], the Ki is reported as < 100 nM.

Same assay, conditions: Ki(app); 5 nM full-length ATR, 10 μM ATP, 800 μM target peptide, 25° C.; class symbols; read-out: ATR Inhibition Ki
`CC(C)S(=O)(=O)c1ccc(-c2cnc3[nH]cc(C(=O)NC4CCS(=O)(=O)C4)c3n2)cc1` (centres unmarked) [Compound I-103, N-(1,1-dioxothiolan-3-yl)-2-(4-isopropylsulfonylphenyl)-5H-pyrrolo[2,3-b]pyrazine-7-carboxamide] was tested, and the Ki was 500 to 5000 nM. Compound `CC(C)S(=O)(=O)c1ccc(-c2cnc3[nH]cc(C(=O)NC4CCOCC4)c3n2)cc1` [Compound I-104, 2-(4-isopropylsulfonylphenyl)-N-tetrahydropyran-4-yl-5H-pyrrolo[2,3-b]pyrazine-7-carboxamide] has a Ki of 500 to 5000 nM. Compound `CC(C)S(=O)(=O)c1ccc(-c2cnc3[nH]cc(C(=O)NCC4(C)COC4)c3n2)cc1` [Compound I-105, 2-(4-isopropylsulfonylphenyl)-N-[(3-methyloxetan-3-yl)methyl]-5H-pyrrolo[2,3-b]pyrazine-7-carboxamide] has a Ki of 500 to 5000 nM. For `CC(C)S(=O)(=O)c1ccc(-c2cnc3[nH]cc(C(=O)N[C@@H](C)CO)c3n2)cc1` [Compound I-106, N-[(1S)-2-hydroxy-1-methyl-ethyl]-2-(4-isopropylsulfonylphenyl)-5H-pyrrolo[2,3-b]pyrazine-7-carboxamide], the Ki was 100 to 500 nM. `CCC(CC)NC(=O)c1c[nH]c2ncc(-c3ccc(S(=O)(=O)C(C)C)cc3)nc12` [Compound I-107, N-(1-ethylpropyl)-2-(4-isopropylsulfonylphenyl)-5H-pyrrolo[2,3-b]pyrazine-7-carboxamide] gave a Ki of 500 to 5000 nM. `CC(C)S(=O)(=O)c1ccc(-c2cnc3[nH]cc(C(=O)NC(c4ccccc4)c4ccccc4)c3n2)cc1` [Compound I-108, N-benzhydryl-2-(4-isopropylsulfonylphenyl)-5H-pyrrolo[2,3-b]pyrazine-7-carboxamide] was tested, and the Ki was 500 to 5000 nM. Compound `CC(c1ccccc1F)N(C)C(=O)c1c[nH]c2ncc(-c3ccc(S(=O)(=O)C(C)C)cc3)nc12` (centres unmarked) [Compound I-109, N-[1-(2-fluorophenyl)ethyl]-2-(4-isopropylsulfonylphenyl)-N-methyl-5H-pyrrolo[2,3-b]pyrazine-7-carboxamide] has a Ki of 500 to 5000 nM. With `COC[C@H](C)NC(=O)c1c[nH]c2ncc(-c3ccc(S(=O)(=O)C(C)C)cc3)nc12` [Compound I-110, 2-(4-isopropylsulfonylphenyl)-N-[(1S)-2-methoxy-1-methyl-ethyl]-5H-pyrrolo[2,3-b]pyrazine-7-carboxamide] the Ki was 100 to 500 nM. With `CCC[C@@H](CO)NC(=O)c1c[nH]c2ncc(-c3ccc(S(=O)(=O)C(C)C)cc3)nc12` [Compound I-112, N-[(1S)-1-(hydroxymethyl)butyl]-2-(4-isopropylsulfonylphenyl)-5H-pyrrolo[2,3-b]pyrazine-7-carboxamide] the Ki was < 100 nM. With `CC(C)S(=O)(=O)c1ccc(-c2cnc3[nH]cc(C(=O)N4CCN(C)CC4)c3n2)cc1` [Compound I-114, [2-(4-isopropylsulfonylphenyl)-5H-pyrrolo[2,3-b]pyrazin-7-yl]-(4-methylpiperazin-1-yl)methanone] the Ki was 500 to 5000 nM. In the case of `CC(C)S(=O)(=O)c1ccc(-c2cnc3[nH]cc(C(=O)N4CCCCC4CO)c3n2)cc1` (centres unmarked) [Compound I-115, [2-(hydroxymethyl)-1-piperidyl]-[2-(4-isopropylsulfonylphenyl)-5H-pyrrolo[2,3-b]pyrazin-7-yl]methanone], the Ki is reported as 500 to 5000 nM. `CC[C@@H](CO)NC(=O)c1c[nH]c2ncc(-c3ccc(S(=O)(=O)C(C)C)cc3)nc12` [Compound I-117, N-[(1S)-1-(hydroxymethyl)propyl]-2-(4-isopropylsulfonylphenyl)-5H-pyrrolo[2,3-b]pyrazine-7-carboxamide] gave a Ki of 100 to 500 nM. `CC(C)S(=O)(=O)c1ccc(-c2cnc3[nH]cc(C(=O)NC4CCOC4)c3n2)cc1` (centres unmarked) [Compound I-118, 2-(4-isopropylsulfonylphenyl)-N-tetrahydrofuran-3-yl-5H-pyrrolo[2,3-b]pyrazine-7-carboxamide] gave a Ki of 100 to 500 nM. `COCCNC(=O)c1c[nH]c2ncc(-c3ccc(S(=O)(=O)C(C)C)cc3)nc12` [Compound I-119, 2-(4-isopropylsulfonylphenyl)-N-(2-methoxyethyl)-5H-pyrrolo[2,3-b]pyrazine-7-carboxamide] gave a Ki of 100 to 500 nM. `CC(C)S(=O)(=O)c1ccc(-c2cnc3[nH]cc(C(=O)NC4CNC4)c3n2)cc1` [Compound I-122, N-(azetidin-3-yl)-2-(4-isopropylsulfonylphenyl)-5H-pyrrolo[2,3-b]pyrazine-7-carboxamide] was tested, and the Ki was 500 to 5000 nM. `CC(C)S(=O)(=O)c1ccc(-c2cnc3[nH]cc(C(=O)N[C@@H](C(N)=O)c4ccccc4)c3n2)cc1` [Compound I-123, N-[(1R)-2-amino-2-oxo-1-phenyl-ethyl]-2-(4-isopropylsulfonylphenyl)-5H-pyrrolo[2,3-b]pyrazine-7-carboxamide] gave a Ki of 100 to 500 nM. Work on `CC(C)S(=O)(=O)c1ccc(-c2cnc3[nH]cc(C(=O)N[C@H](C(N)=O)c4ccccc4)c3n2)cc1` [Compound I-124, N-[(1S)-2-amino-2-oxo-1-phenyl-ethyl]-2-(4-isopropylsulfonylphenyl)-5H-pyrrolo[2,3-b]pyrazine-7-carboxamide] yielded a Ki of 100 to 500 nM. With `CC(C)S(=O)(=O)c1ccc(-c2cnc3[nH]cc(C(=O)NCc4ccc5c(c4)OCO5)c3n2)cc1` [Compound I-125, N-(1,3-benzodioxol-5-ylmethyl)-2-(4-isopropylsulfonylphenyl)-5H-pyrrolo[2,3-b]pyrazine-7-carboxamide] the Ki was < 100 nM. For `CC(c1cccc(Cl)c1)N(C)C(=O)c1c[nH]c2ncc(-c3ccc(S(=O)(=O)C(C)C)cc3)nc12` (centres unmarked) [Compound I-126, N-[1-(3-chlorophenyl)ethyl]-2-(4-isopropylsulfonylphenyl)-N-methyl-5H-pyrrolo[2,3-b]pyrazine-7-carboxamide], the Ki was < 100 nM. With `CC(C)S(=O)(=O)c1ccc(-c2cnc3[nH]cc(C(=O)NC4CCC(CO)CC4)c3n2)cc1` (centres unmarked) [Compound I-127, N-[4-(hydroxymethyl)cyclohexyl]-2-(4-isopropylsulfonylphenyl)-5H-pyrrolo[2,3-b]pyrazine-7-carboxamide] the Ki was < 100 nM. For `CC(C)S(=O)(=O)c1ccc(-c2cnc3[nH]cc(C(=O)NCc4ccccc4CO)c3n2)cc1` [Compound I-129, N-[[2-(hydroxymethyl)phenyl]methyl]-2-(4-isopropylsulfonylphenyl)-5H-pyrrolo[2,3-b]pyrazine-7-carboxamide], the Ki was < 100 nM.

Same assay, conditions: Ki(app); 5 nM full-length ATR, 10 μM ATP, 800 μM target peptide, 25° C.; given as numeric lower bound without unit; read-out: ATR Inhibition Ki
With `CC(C)S(=O)(=O)c1ccc(-c2cnc3[nH]cc(C(=O)NC4CN(C(=O)OC(C)(C)C)C4)c3n2)cc1` [Compound I-111, tert-butyl 3-[[2-(4-isopropylsulfonylphenyl)-5H-pyrrolo[2,3-b]pyrazine-7-carbonyl]amino]azetidine-1-carboxylate] the Ki was > 250 nM. `CC(C)S(=O)(=O)c1ccc(-c2cnc3[nH]cc(C(=O)NC4(CO)CC4)c3n2)cc1` [Compound I-113, N-[1-(hydroxymethyl)cyclopropyl]-2-(4-isopropylsulfonylphenyl)-5H-pyrrolo[2,3-b]pyrazine-7-carboxamide] was tested, and the Ki was > 1000 nM. For `CC(C)S(=O)(=O)c1ccc(-c2cnc3[nH]cc(C(=O)N4CC5CCC(C4)O5)c3n2)cc1` [Compound I-116, [2-(4-isopropylsulfonylphenyl)-5H-pyrrolo[2,3-b]pyrazin-7-yl]-(8-oxa-3-azabicyclo[3.2.1]octan-3-yl)methanone], the Ki was > 1000 nM. In the case of `CC(C)S(=O)(=O)c1ccc(-c2cnc3[nH]cc(C(=O)N4CCOCC4)c3n2)cc1` [Compound I-120, [2-(4-isopropylsulfonylphenyl)-5H-pyrrolo[2,3-b]pyrazin-7-yl]-morpholino-methanone], the Ki is reported as > 2500 nM. With `CC(C)S(=O)(=O)c1ccc(-c2cnc3[nH]cc(C(=O)N(CCO)C4CCCCC4)c3n2)cc1` [Compound I-121, N-cyclohexyl-N-(2-hydroxyethyl)-2-(4-isopropylsulfonylphenyl)-5H-pyrrolo[2,3-b]pyrazine-7-carboxamide] the Ki was > 1000 nM. With `CC(C)S(=O)(=O)c1ccc(-c2cnc3[nH]cc(C(=O)N4CCOc5ccccc5C4)c3n2)cc1` [Compound I-130, 3,5-dihydro-2H-1,4-benzoxazepin-4-yl-[2-(4-isopropylsulfonylphenyl)-5H-pyrrolo[2,3-b]pyrazin-7-yl]methanone] the Ki was > 250 nM. In the case of `CC(C)S(=O)(=O)c1ccc(-c2cnc3[nH]cc(C(=O)N(CC(N)=O)C4CCCC4)c3n2)cc1` [Compound I-131, N-(2-amino-2-oxo-ethyl)-N-cyclopentyl-2-(4-isopropylsulfonylphenyl)-5H-pyrrolo[2,3-b]pyrazine-7-carboxamide], the Ki is reported as > 40 nM. In the case of `CC(C)S(=O)(=O)c1ccc(-c2cnc3[nH]cc(C(=O)N4CCN(C(=O)OC(C)(C)C)CC4)c3n2)cc1` [Compound I-132, tert-butyl 4-[2-(4-isopropylsulfonylphenyl)-5H-pyrrolo[2,3-b]pyrazine-7-carbonyl]piperazine-1-carboxylate], the Ki is reported as > 2500 nM. With `CC(C)S(=O)(=O)c1ccc(-c2cnc3[nH]cc(C(=O)Nc4cc(C(C)(C)C)on4)c3n2)cc1` [Compound I-133, N-(5-tert-butylisoxazol-3-yl)-2-(4-isopropylsulfonylphenyl)-5H-pyrrolo[2,3-b]pyrazine-7-carboxamide] the Ki was > 40 nM. `CC(C)S(=O)(=O)c1ccc(-c2cnc3[nH]cc(C(=O)N4CCCN(C(=O)OC(C)(C)C)CC4)c3n2)cc1` [Compound I-134, tert-butyl 4-[2-(4-isopropylsulfonylphenyl)-5H-pyrrolo[2,3-b]pyrazine-7-carbonyl]-1,4-diazepane-1-carboxylate] was tested, and the Ki was > 40 nM.
